Measured values taken from ChEMBL document CHEMBL4376803, “Recent Advances in the Exploration of Therapeutic Analogues of Gramicidin S, an Old but Still Potent Antimicrobial Peptide” (J Med Chem, 2019).
Values after ≈ are worked out from the molar mass of the structure shown.

Legend:
[1] = Haemolytic activity in human erythrocytes incubated for 30 mins; assay type: ADME, cell-based, Erythrocyte
Staphylococcus aureus [2] = assay: Antibacterial activity against methicillin-resistant Staphylococcus aureus NT 1110301981H-T034-PVL+ incubated for 24 hrs; assay type: functional
Pseudomonas aeruginosa [3] = assay: Antibacterial activity against Pseudomonas aeruginosa ATCC 27853 incubated for 24 hrs; assay type: functional; conditions: ATCC 27853, 24 h
Enterococcus faecalis [4] = assay: Antibacterial activity against Enterococcus faecalis ATCC 29212 after 24 hrs; assay type: functional; conditions: ATCC 29212, 24 h
Escherichia coli [5] = assay: Antibacterial activity against Escherichia coli ATCC 25922 after 24 hrs; assay type: functional; conditions: ATCC 25922, 24 h
Staphylococcus aureus [6] = assay: Antibacterial activity against Staphylococcus aureus ATCC 29213 after 24 hrs; assay type: functional; conditions: ATCC 29213, 24 h
Staphylococcus aureus [7] = assay: Antibacterial activity against Staphylococcus aureus ATCC 29213 after overnight incubation; assay type: functional
Enterococcus faecalis [8] = assay: Antibacterial activity against Enterococcus faecalis ATCC 29212 after overnight incubation; assay type: functional
Escherichia coli [9] = assay: Antibacterial activity against Escherichia coli ATCC 25922 after overnight incubation; assay type: functional
Pseudomonas aeruginosa [10] = assay: Antibacterial activity against Pseudomonas aeruginosa NBRC 3080 after overnight incubation by microplate dilution method; assay type: functional
Staphylococcus aureus [11] = assay: Antibacterial activity against Staphylococcus aureus NBRC 12732 after overnight incubation by microplate dilution method; assay type: functional
Escherichia coli [12] = assay: Antibacterial activity against Escherichia coli NBRC 12734 after overnight incubation by microplate dilution method; assay type: functional
Bacillus subtilis = assay: Antibacterial activity against Bacillus subtilis NBRC 3513 after overnight incubation by microplate dilution method; assay type: functional
Priestia megaterium = assay: Antibacterial activity against Bacillus megaterium ATCC 19213 after overnight incubation by microplate dilution method; assay type: functional
[13] = Hemolytic activity in sheep RBC incubated for 30 mins; assay type: ADME, cell-based, Ovis aries, Erythrocyte; conditions: sheep red blood cells
Escherichia coli [14] = assay: Antibacterial activity against Escherichia coli K-12 strain W3110 incubated for 20 hrs by liquid microdilution method; assay type: functional; conditions: K-12 substr. W3110, 20 h
Staphylococcus aureus [15] = assay: Antibacterial activity against Staphylococcus aureus 209P incubated for 20 hrs by liquid microdilution method; assay type: functional
Enterococcus faecalis [16] = assay: Antibacterial activity against Enterococcus faecalis 1131 after 24 hrs by broth dilution method; assay type: functional; conditions: Enterococcus faecalis, 1131, 24 h
Pseudomonas aeruginosa [17] = assay: Antibacterial activity against Pseudomonas aeruginosa ATCC 19582 after 24 hrs by broth dilution method; assay type: functional; conditions: ATCC 19582, 24 h
[18] = Hemolytic activity against RBC (unknown origin) at 100 ul after 4 hrs; assay type: ADME, cell-based, Erythrocyte; conditions: red blood cells (unknown origin)
Staphylococcus aureus [19] = assay: Antibacterial activity against Staphylococcus aureus 7323; assay type: functional
Escherichia coli [20] = assay: Antibacterial activity against Escherichia coli ATCC 25922 after 24 hrs by broth dilution method; assay type: functional; conditions: ATCC 25922, 24 h

For `CC(C)C[C@@H]1NC(=O)[C@H](CCCN)NC(=O)[C@H](C(C)C)NC(=O)[C@@H]2C[C@@H](N[C@@H](CCCCN)C(=O)O)CN2C(=O)[C@@H](Cc2ccccc2)NC(=O)[C@H](CC(C)C)NC(=O)[C@H](CCCN)NC(=O)[C@H](C(C)C)NC(=O)[C@@H]2C[C@@H](N[C@@H](CCCCN)C(=O)O)CN2C(=O)[C@@H](Cc2ccccc2)NC1=O` [listing 1 of 2 here], the HC50 at 0.5 h [1] was > 100 µg/mL.

In the case of `CC(C)[C@@H]1NC(=O)[C@H](CCCN)NC(=O)[C@@H]2CCCN2C(=O)[C@@H](Cc2ccccc2)NC(=O)[C@H](CCCN)NC(=O)[C@@H](C(C)C)NC(=O)[C@H](CCCN)NC(=O)[C@@H]2CCCN2C(=O)[C@@H](Cc2ccccc2)NC(=O)[C@H](CCCN)NC1=O`, the MIC (Staphylococcus aureus [2]) is reported as > 64 µg/mL, the MIC (Pseudomonas aeruginosa [3]) is reported as > 64 µg/mL and the MIC (Enterococcus faecalis [4]) is reported as > 64 µg/mL. For the same compound, the MIC (Escherichia coli [5]) was > 64 µg/mL and the MIC (Staphylococcus aureus [6]) was > 64 µg/mL.

`CC(C)C[C@@H]1NC(=O)[C@H](CCCN)NC(=O)[C@H](C(C)C)NC(=O)[C@@H]2CCCN2C(=O)[C@@H](Cc2ccc(O)cc2)NC(=O)[C@H](CC(C)C)NC(=O)[C@@H](CCCN)NC(=O)[C@H](C(C)C)NC(=O)[C@@H]2CCCN2C(=O)[C@@H](Cc2ccc(O)cc2)NC1=O` gave an MIC (Staphylococcus aureus [7]) of 32 µg/mL (≈ 27.3 µM), an MIC (Enterococcus faecalis [8]) of 32 µg/mL (≈ 27.3 µM) and an MIC (Escherichia coli [9]) of 64 µg/mL (≈ 54.5 µM).

For `CC(C)C[C@@H]1NC(=O)[C@H](CCCN)NC(=O)[C@H](C(C)C)NC(=O)[C@@H]2C[C@@H](N)CN2C(=O)[C@@H](Cc2ccccc2)NC(=O)[C@H](CC(C)C)NC(=O)[C@H](CCCN)NC(=O)[C@H](C(C)C)NC(=O)[C@@H]2C[C@@H](N)CN2C(=O)[C@@H](Cc2ccccc2)NC1=O`, the HC50 at 0.5 h [1] was 50 to 100 µg/mL.

With `NCCC[C@@H]1NC(=O)[C@H](C23CC4CC(CC(C4)C2)C3)NC(=O)[C@@H]2CCCN2C(=O)[C@@H](Cc2ccccc2)NC(=O)[C@H](C23CC4CC(CC(C4)C2)C3)NC(=O)[C@H](CCCN)NC(=O)[C@H](C23CC4CC(CC(C4)C2)C3)NC(=O)[C@@H]2CCCN2C(=O)[C@@H](Cc2ccccc2)NC(=O)[C@H](C23CC4CC(CC(C4)C2)C3)NC1=O` the MIC (Pseudomonas aeruginosa [3]) was > 64 µg/mL, the MIC (Enterococcus faecalis [4]) was > 64 µg/mL and the MIC (Escherichia coli [5]) was > 64 µg/mL. For the same compound, the MIC (Staphylococcus aureus [6]) was > 64 µg/mL.

`CC(C)C[C@@H]1NC(=O)[C@H](CCCN)NC(=O)[C@H](C(C)C)NC(=O)[C@@H]2CCCN2C(=O)[C@@H](Cc2ccccc2)NC(=O)[C@H](CC(C)C)NC(=O)[C@H](CCCN)NC(=O)[C@H](C(C)C)NC(=O)[C@@H]2CCCN2C(=O)NC(=O)[C@H](Cc2ccccc2)NC(=O)[C@H](CCCCN)NC1=O` showed an MIC (Pseudomonas aeruginosa [10]) of 100 µg/mL (≈ 76.2 µM), an MIC (Staphylococcus aureus [11]) of 3.13 µg/mL (≈ 2.38 µM) and an MIC (Escherichia coli [12]) of 25 µg/mL (≈ 19 µM). The MIC (Bacillus subtilis) was 3.13 µg/mL (≈ 2.38 µM), the MIC (Priestia megaterium) was 3.13 µg/mL (≈ 2.38 µM) and the HC50 at 0.5 h [13] was > 100 µg/mL.

In the case of `CC(C)C[C@@H]1NC(=O)[C@H](CCCN)NC(=O)[C@H](C(C)C)NC(=O)[C@@H]2C[C@@H](N[C@@H](CCCCN)C(=O)O)CN2C(=O)[C@@H](Cc2ccccc2)NC(=O)[C@H](CC(C)C)NC(=O)[C@H](CCCN)NC(=O)[C@H](C(C)C)NC(=O)[C@@H]2C[C@@H](N[C@@H](CCCCN)C(=O)O)CN2C(=O)[C@@H](Cc2ccccc2)NC1=O` [listing 2 of 2 here], the MIC (Escherichia coli [14]) is reported as 16 µg/mL (≈ 11.2 µM) and the MIC (Staphylococcus aureus [15]) is reported as 8 µg/mL (≈ 5.6 µM).

With `CC(C)C[C@@H]1NC(=O)[C@H](CCCN)NC(=O)[C@H](C(C)C)NC(=O)[C@@H]2CCCN2C(=O)[C@@H](Cc2c[nH]cn2)NC(=O)[C@H](CC(C)C)NC(=O)[C@@H](CCCN)NC(=O)[C@H](C(C)C)NC(=O)[C@@H]2CCCN2C(=O)[C@@H](Cc2ccccc2)NC1=O` the MIC (Enterococcus faecalis [16]) was 16 µg/mL (≈ 14.1 µM), the MIC (Pseudomonas aeruginosa [17]) was 16 µg/mL (≈ 14.1 µM) and the HC50 at 4 h [18] was 90 to 110 µg/mL. For the same compound, the MIC (Staphylococcus aureus [19]) was 4 µg/mL (≈ 3.54 µM) and the MIC (Escherichia coli [20]) was 8 µg/mL (≈ 7.07 µM).

Compound `NCCC[C@@H]1NC(=O)[C@H](C23CC4CC(CC(C4)C2)C3)NC(=O)[C@H](CCCN)NC(=O)[C@@H]2CCCN2C(=O)[C@@H](Cc2ccccc2)NC(=O)[C@H](CCCN)NC(=O)[C@H](C23CC4CC(CC(C4)C2)C3)NC(=O)[C@H](CCCN)NC(=O)[C@@H]2CCCN2C(=O)[C@@H](Cc2ccccc2)NC1=O` has an MIC (Staphylococcus aureus [2]) of 8 µg/mL (≈ 6.03 µM), an MIC (Pseudomonas aeruginosa [3]) of 16 µg/mL (≈ 12.1 µM) and an MIC (Enterococcus faecalis [4]) of 8 µg/mL (≈ 6.03 µM). For the same compound, the MIC (Escherichia coli [5]) was 8 µg/mL (≈ 6.03 µM) and the MIC (Staphylococcus aureus [6]) was 8 µg/mL (≈ 6.03 µM).
